Results reported in ChEMBL document CHEMBL1146758, “Design, synthesis and structure-activity relationship studies of novel indazole analogues as DNA gyrase inhibitors with Gram-positive antibacterial activity” (Bioorg Med Chem Lett, 2004).
≈ marks a conversion by molar mass, not a printed value.

Legend:
[1] = tested on: Staphylococcus aureus; experiment: Inhibitory activity against Staphylococcus aureus FDA 209P; type: functional
[2] = biological target: DNA gyrase (Escherichia coli, UniProt P0AES4+P0AES6); experiment: (§1) Inhibitory activity against Escherichia coli DNA gyrase; type: protein-complex assay
[3] = tested on: Enterococcus faecalis; experiment: Inhibitory activity against Enterococcus faecalis ATCC 29212; type: functional
[4] = tested on: Enterococcus faecalis; experiment: Inhibitory activity against Enterococcus faecalis KU 1777; type: functional
[5] = tested on: Staphylococcus aureus; experiment: Inhibitory activity against Staphylococcus aureus KMP9; type: functional
[6] = biological target: DNA gyrase (Escherichia coli, UniProt P0AES6+P0AES4); experiment: as §1; type: protein-complex assay
[7] = biological target: T1, DNA topoisomerase II (Homo sapiens, UniProt P11388+Q02880); experiment: Human DNA topoisomerase II relaxation activity was determined; type: protein assay
[8] = tested on: Nucleic Acid; experiment: Escherichia coli DNA topoisomerase IV decatenation activity was determined; type: nucleic-acid assay
[9] = biological target: T1, DNA topoisomerase II; experiment: Inhibitory activity against human DNA topoisomerase II; type: protein assay
[10] = tested on: Nucleic Acid; experiment: Inhibitory activity against Escherichia coli DNA topoisomerase IV; type: nucleic-acid assay
[11] = Staphylococcus aureus, read-out: MIC
[12] = Enterococcus faecalis, ATCC 29212, read-out: MIC
[13] = Enterococcus faecalis, read-out: MIC

SMILES	MIC [1, 11]	IC50 [2]	MIC [3, 12]	MIC [4, 13]	MIC [5, 11]	MIC [3]	MIC [4]	MIC [1]	MIC [5]	IC50 [6]	IC50 [7]	IC50 [8]	IC50 [9]	IC50 [10]
COC(=O)C1CCCC(Nc2[nH]nc3cccc(OCc4ccc(Cl)cc4)c23)C1 (configuration not stated)	32 µg/mL (≈ 77.3 µM)	38.7 µM	64 µg/mL (≈ 155 µM)	32 µg/mL (≈ 77.3 µM)	32 µg/mL (≈ 77.3 µM)									
CCOC(=O)C1CCCN(Cc2n[nH]c3cccc(OCc4ccc(C(C)(C)C)cc4)c23)C1 (configuration not stated)	16 µg/mL (≈ 35.6 µM)	17.8 µM	16 µg/mL (≈ 35.6 µM)	16 µg/mL (≈ 35.6 µM)	32 µg/mL (≈ 71.2 µM)									
COC(=O)C1CCCC(NCc2cc(/C=C\c3cn(C)c4ccc(Cl)cc34)[nH]n2)C1 (stereo in doubt; 8ba)	4 µg/mL (≈ 9.37 µM)	2.34 µM			8 µg/mL (≈ 18.7 µM)	8 µg/mL (≈ 18.7 µM)	8 µg/mL (≈ 18.7 µM)							
CC(C)(C)c1ccc(COc2cccc3[nH]nc(NCCCC(=O)O)c23)cc1	> 128 µg/mL	83.9 µM	> 128 µg/mL	> 128 µg/mL	> 128 µg/mL									
COC(=O)C1CCN(Cc2n[nH]c3cccc(OCc4ccc(C(C)(C)C)cc4)c23)CC1	32 µg/mL (≈ 73.5 µM)	36.7 µM	32 µg/mL (≈ 73.5 µM)	32 µg/mL (≈ 73.5 µM)	32 µg/mL (≈ 73.5 µM)									
COC(=O)C1CCCC(Nc2[nH]nc3cccc(OCc4ccccc4)c23)C1 (configuration not stated)	64 µg/mL (≈ 169 µM)	21.1 µM	64 µg/mL (≈ 169 µM)	64 µg/mL (≈ 169 µM)	64 µg/mL (≈ 169 µM)									
COC(=O)C1CCCC(NCc2cc(/C=C\c3cn(C)c4ccc(Cl)cc34)[nH]n2)C1 (stereo in doubt; 8bb)		1.17 µM				64 µg/mL (≈ 150 µM)	32 µg/mL (≈ 75 µM)	8 µg/mL (≈ 18.7 µM)	16 µg/mL (≈ 37.5 µM)					
COC(=O)C1CCCC(Nc2[nH]nc3cccc(OCc4ccc(F)c(F)c4)c23)C1 (configuration not stated)	128 µg/mL (≈ 308 µM)	38.5 µM	128 µg/mL (≈ 308 µM)	128 µg/mL (≈ 308 µM)	128 µg/mL (≈ 308 µM)									
COC(=O)C1CCCC(NCc2cc(/C=C/c3cn(C)c4ccc(Cl)cc34)[nH]n2)C1 (stereo in doubt; 7ba)						32 µg/mL (≈ 75 µM)		8 µg/mL (≈ 18.7 µM)	8 µg/mL (≈ 18.7 µM)	2.34 µM				
Cn1cc(/C=C/c2cc(C3CCNCC3)nn2-c2cccc(Cl)c2)c2cc(Cl)ccc21	1 µg/mL (≈ 2.22 µM)	31 µM	2 µg/mL (≈ 4.43 µM)	2 µg/mL (≈ 4.43 µM)	1 µg/mL (≈ 2.22 µM)						> 400 µg/mL	8 µg/mL (≈ 17.7 µM)		
CO[C@@H]1[C@@H](OC(N)=O)[C@@H](O)[C@H](Oc2ccc3c(O)c(NC(=O)c4ccc(O)c(CC=C(C)C)c4)c(=O)oc3c2C)OC1(C)C [NOVOBIOCIN]	0.25 µg/mL (≈ 0.408 µM)		2 µg/mL (≈ 3.26 µM)	2 µg/mL (≈ 3.26 µM)	0.25 µg/mL (≈ 0.408 µM)								> 400 µg/mL	25 µg/mL (≈ 40.8 µM)
COC(=O)C1CCCC(Nc2[nH]nc3cccc(OCc4ccc(Cl)c(Cl)c4)c23)C1 (configuration not stated)	4 µg/mL (≈ 8.92 µM)	2.23 µM	4 µg/mL (≈ 8.92 µM)	4 µg/mL (≈ 8.92 µM)	4 µg/mL (≈ 8.92 µM)									
c1ccc(COc2ccc(-c3cc(C4CCNCC4)[nH]n3)cc2)cc1	64 µg/mL (≈ 192 µM)	384 µM	64 µg/mL (≈ 192 µM)	64 µg/mL (≈ 192 µM)	64 µg/mL (≈ 192 µM)								200 µg/mL (≈ 600 µM)	128 µg/mL (≈ 384 µM)
CC(C)(C)c1ccc(COc2cccc3[nH]nc(CN[C@H]4CN[C@H](CO)C4)c23)cc1	32 µg/mL (≈ 78.3 µM)	78.3 µM	64 µg/mL (≈ 157 µM)	32 µg/mL (≈ 78.3 µM)	64 µg/mL (≈ 157 µM)									
COC(=O)C1CCCC(NCc2n[nH]c3cccc(OCc4ccc(C(C)(C)C)cc4)c23)C1 (configuration not stated)	4 µg/mL (≈ 8.9 µM)	8.9 µM	8 µg/mL (≈ 17.8 µM)	4 µg/mL (≈ 8.9 µM)	4 µg/mL (≈ 8.9 µM)						> 400 µg/mL	> 128 µg/mL		
COC(=O)C1CCCC(NCc2cc(/C=C/c3ccc(Cl)c(Cl)c3)[nH]n2)C1 (configuration not stated)	4 µg/mL (≈ 9.8 µM)	39.2 µM	16 µg/mL (≈ 39.2 µM)	16 µg/mL (≈ 39.2 µM)	8 µg/mL (≈ 19.6 µM)									

SMILES	MIC [1, 11]	IC50 [2]	MIC [3, 12]	MIC [4, 13]	MIC [5, 11]	MIC [3]	MIC [4]	MIC [1]	MIC [5]	IC50 [6]	IC50 [7]	IC50 [8]	IC50 [9]	IC50 [10]
COC(=O)C1CCCN(Cc2n[nH]c3cccc(OCc4ccc(C(C)(C)C)cc4)c23)C1 (configuration not stated)	32 µg/mL (≈ 73.5 µM)	36.7 µM	64 µg/mL (≈ 147 µM)	32 µg/mL (≈ 73.5 µM)	64 µg/mL (≈ 147 µM)									
COC(=O)[C@@H]1C[C@H](NCc2n[nH]c3cccc(OCc4ccc(C(C)(C)C)cc4)c23)CN1	64 µg/mL (≈ 147 µM)	18.3 µM	64 µg/mL (≈ 147 µM)	64 µg/mL (≈ 147 µM)	64 µg/mL (≈ 147 µM)									
CCOC(=O)CCCNc1[nH]nc2cccc(OCc3ccc(C(C)(C)C)cc3)c12	16 µg/mL (≈ 39.1 µM)	39.1 µM	16 µg/mL (≈ 39.1 µM)	16 µg/mL (≈ 39.1 µM)	16 µg/mL (≈ 39.1 µM)									
CNCc1n[nH]c2cccc(OCc3ccc(C(C)(C)C)cc3)c12	32 µg/mL (≈ 98.9 µM)	198 µM	32 µg/mL (≈ 98.9 µM)	16 µg/mL (≈ 49.5 µM)	64 µg/mL (≈ 198 µM)									
Clc1cccc(-n2nc(C3CCNCC3)cc2/C=C/c2c[nH]c3ccc(Cl)cc23)c1	1 µg/mL (≈ 2.29 µM)	32 µM	2 µg/mL (≈ 4.57 µM)	2 µg/mL (≈ 4.57 µM)	1 µg/mL (≈ 2.29 µM)						> 400 µg/mL	8 µg/mL (≈ 18.3 µM)		
COC(=O)C1CCCC(NCc2cc(/C=C/c3cn(C)c4ccc(Cl)cc34)[nH]n2)C1 (stereo in doubt; 7bb)	16 µg/mL (≈ 37.5 µM)	2.34 µM	64 µg/mL (≈ 150 µM)	32 µg/mL (≈ 75 µM)	16 µg/mL (≈ 37.5 µM)									
COC(=O)[C@@H]1C[C@@H](NCc2n[nH]c3cccc(OCc4ccc(C(C)(C)C)cc4)c23)CN1	64 µg/mL (≈ 147 µM)	18.3 µM	128 µg/mL (≈ 293 µM)	64 µg/mL (≈ 147 µM)	128 µg/mL (≈ 293 µM)									
COC(=O)C1CCCC(Nc2[nH]nc3cccc(OCc4ccc(C(C)(C)C)cc4)c23)C1 (configuration not stated)	4 µg/mL (≈ 9.18 µM)	9.18 µM	8 µg/mL (≈ 18.4 µM)	4 µg/mL (≈ 9.18 µM)	4 µg/mL (≈ 9.18 µM)									
COC(=O)C1CN(Cc2n[nH]c3cccc(OCc4ccc(C(C)(C)C)cc4)c23)CCC1=O (configuration not stated)	> 128 µg/mL	8.9 µM	> 128 µg/mL	> 128 µg/mL	> 128 µg/mL									
COC(=O)C1CCCC(Nc2[nH]nc3cccc(OCc4cnc(Cl)c(Cl)c4)c23)C1 (configuration not stated)	> 128 µg/mL	142 µM	> 128 µg/mL	> 128 µg/mL	> 128 µg/mL									
COC(=O)C1CCCC(NCc2n[nH]c3cccc(OCc4ccc(Cl)c(Cl)c4)c23)C1 (configuration not stated)	4 µg/mL (≈ 8.65 µM)	2.16 µM	4 µg/mL (≈ 8.65 µM)	4 µg/mL (≈ 8.65 µM)	4 µg/mL (≈ 8.65 µM)						> 400 µg/mL	> 128 µg/mL		
CC(C)(C)c1ccc(COc2cccc3[nH]nc(CN4CCNCC4)c23)cc1	16 µg/mL (≈ 42.3 µM)	169 µM	32 µg/mL (≈ 84.5 µM)	16 µg/mL (≈ 42.3 µM)	32 µg/mL (≈ 84.5 µM)									
Cc1cc(=O)oc2cc(CCc3n[nH]c4cccc(OCc5ccc(C(C)(C)C)cc5)c34)ccc12	> 128 µg/mL	0.536 µM	> 128 µg/mL	> 128 µg/mL	> 128 µg/mL								> 400 µg/mL	> 128 µg/mL
COC(=O)C1CCCC(NCc2cc(/C=C\c3ccc(Cl)c(Cl)c3)[nH]n2)C1 (configuration not stated)	4 µg/mL (≈ 9.8 µM)	39.2 µM	16 µg/mL (≈ 39.2 µM)	16 µg/mL (≈ 39.2 µM)	8 µg/mL (≈ 19.6 µM)									
CC(C)(C)c1ccc(COc2cccc3[nH]nc(CN[C@@H]4CN[C@H](CO)C4)c23)cc1	64 µg/mL (≈ 157 µM)	157 µM	64 µg/mL (≈ 157 µM)	64 µg/mL (≈ 157 µM)	64 µg/mL (≈ 157 µM)									
